Results on 13 molecules are retold here after PubChem BioAssay (NCI).

Several values for one entry are separate records, joined by “and”; a condition that tells them apart may be missing. Equal values may be shown once.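 How tested: cells in 96-well plates exposed to compound for 48 hours at five concentrations. GI50 marks 50% less growth. At the TGI there is no net growth.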

The first assay has as its system OVCAR-8 ovarian. Put plainly: growth of human tumour cells (NCI), 48 h.
As to `COc1cc(N2C(=O)[C@H](O)C2c2ccc(SC)cc2)cc(OC)c1OC` (some centres undefined), the GI50 is less than 0.01 µM and the TGI was determined as 22.4 µM.

In the case of `O=C1OCC2=C1C(c1ccc(Cl)c(Cl)c1)c1cc3c(cc1N2CCO)OCCO3` (centres undefined), the GI50 is 0.389 µM and the TGI was determined as 7.24 µM.

In turn, `O=C1c2ccccc2-c2cc([N+](=O)[O-])c([N+](=O)[O-])cc21` registered a TGI of 3.57 µM.

Take `O=C(/C=C/c1cc2ccccc2[nH]c1=O)/C=C/c1cc2ccccc2[nH]c1=O`: the GI50 is 9.84 µM and the TGI is more than 72.8 µM.

In the case of `Nc1nc(OCc2ccccc2)c2[nH]cnc2n1`, the GI50 was 64.8 µM and 63 µM; the TGI is 400 µM and 492 µM.

`CC(=O)OC12C=C(C)C(C(C)C1)C1C(=O)N(CCN3CCOCC3)C(=O)C12` (centres undefined): the GI50 is more than 100 µM and the TGI is more than 100 µM.

In the case of `OCC12C3C4C5C3C1C5C42` (centres undefined), the TGI is more than 100 µM.

`CCCCCCCCCCCCCCCCCC[n+]1ccc2c(C)c3c(c(C)c2c1)c1cc(O)ccc1n3CC`: the GI50 is 1.71 µM and the TGI amounted to 6.53 µM.

With `C1CCC([PH+](C2CCCCC2)C2CCCCC2[PH+](C2CCCCC2)C2CCCCC2)CC1.[Au].[CH-]1CCCCC1CC1CCCC[N-]1` (centres undefined), the GI50 was 0.264 µM and the TGI was more than 100 µM.

`O=[N+]([O-])c1ccc(C=Cc2ccccc2)cc1.[C-]#[O+].[C-]#[O+].[C-]#[O+].[Cr]`: the GI50 was 9.77 µM and the TGI was more than 100 µM.

Regarding `C/C(=C\c1ccc2ccccc2c1)[N+](=O)[O-]`, the GI50 is 1.73 µM and the TGI stood at 3.17 µM.

The molecule `NC(CSC1c2ccccc2-c2ccccc21)C(=O)O` (centres undefined) returned a TGI of more than 100 µM.

As to `CCOC(=O)C1=C(C)N(c2ccc(Cl)cc2)[C@]2(C#N)C(O)=C(Cl)C(Cl)=C(O)[C@]12C#N`, the GI50 was more than 100 µM and the TGI was more than 100 µM.

A further assay has as its system NCI/ADR-RES ovarian. Put plainly: growth of human tumour cells (NCI), 48 h.
As to `COc1cc(N2C(=O)[C@H](O)C2c2ccc(SC)cc2)cc(OC)c1OC` (some centres undefined), the GI50 was 0.0166 µM and the TGI was more than 100 µM.

As to `O=C1OCC2=C1C(c1ccc(Cl)c(Cl)c1)c1cc3c(cc1N2CCO)OCCO3` (centres undefined), the GI50 is 0.239 µM and the TGI turned out to be 3 µM.

Turning to `O=C1c2ccccc2-c2cc([N+](=O)[O-])c([N+](=O)[O-])cc21`, the TGI stood at 9.64 µM.

Regarding `O=C(/C=C/c1cc2ccccc2[nH]c1=O)/C=C/c1cc2ccccc2[nH]c1=O`, the GI50 was more than 78 µM and the TGI was more than 100 µM.

`Nc1nc(OCc2ccccc2)c2[nH]cnc2n1`: the GI50 is 97.2 µM and 84.9 µM; the TGI was 414 µM.

Turning to `CC(=O)OC12C=C(C)C(C(C)C1)C1C(=O)N(CCN3CCOCC3)C(=O)C12` (centres undefined), the GI50 was more than 100 µM and the TGI was more than 100 µM.

In turn, `OCC12C3C4C5C3C1C5C42` (centres undefined) had a TGI of more than 100 µM.

`CCCCCCCCCCCCCCCCCC[n+]1ccc2c(C)c3c(c(C)c2c1)c1cc(O)ccc1n3CC`: the GI50 is 10.8 µM and the TGI is 39 µM.

In the case of `C1CCC([PH+](C2CCCCC2)C2CCCCC2[PH+](C2CCCCC2)C2CCCCC2)CC1.[Au].[CH-]1CCCCC1CC1CCCC[N-]1` (centres undefined), the GI50 is 2.86 µM and the TGI was more than 100 µM.

For the molecule `O=[N+]([O-])c1ccc(C=Cc2ccccc2)cc1.[C-]#[O+].[C-]#[O+].[C-]#[O+].[Cr]`, the GI50 is 13.4 µM and the TGI was more than 100 µM.

Turning to `C/C(=C\c1ccc2ccccc2c1)[N+](=O)[O-]`, the GI50 is 7.75 µM and the TGI is 23.7 µM.

Turning to `NC(CSC1c2ccccc2-c2ccccc21)C(=O)O` (centres undefined), the TGI is more than 100 µM.

The subject of another assay is NCI-H522 lung. Put plainly: growth of human tumour cells (NCI), 48 h.
Take `COc1cc(N2C(=O)[C@H](O)C2c2ccc(SC)cc2)cc(OC)c1OC` (some centres undefined): the GI50 was less than 0.01 µM.

Take `O=C1OCC2=C1C(c1ccc(Cl)c(Cl)c1)c1cc3c(cc1N2CCO)OCCO3` (centres undefined): the GI50 was 0.0852 µM and the TGI stood at 0.283 µM.

Turning to `O=C1c2ccccc2-c2cc([N+](=O)[O-])c([N+](=O)[O-])cc21`, the TGI amounted to 2.99 µM.

As to `O=C(/C=C/c1cc2ccccc2[nH]c1=O)/C=C/c1cc2ccccc2[nH]c1=O`, the TGI is more than 47 µM.

`Nc1nc(OCc2ccccc2)c2[nH]cnc2n1`: the GI50 was 23.6 µM and 16.5 µM; the TGI was 135 µM and 69.4 µM.

Turning to `CC(=O)OC12C=C(C)C(C(C)C1)C1C(=O)N(CCN3CCOCC3)C(=O)C12` (centres undefined), the GI50 is more than 100 µM and the TGI was more than 100 µM.

The molecule `OCC12C3C4C5C3C1C5C42` (centres undefined) showed a TGI of more than 100 µM.

Turning to `CCCCCCCCCCCCCCCCCC[n+]1ccc2c(C)c3c(c(C)c2c1)c1cc(O)ccc1n3CC`, the GI50 was 1.89 µM and the TGI was 18.1 µM.

In the case of `C1CCC([PH+](C2CCCCC2)C2CCCCC2[PH+](C2CCCCC2)C2CCCCC2)CC1.[Au].[CH-]1CCCCC1CC1CCCC[N-]1` (centres undefined), the GI50 was 0.29 µM and the TGI was determined as 1.56 µM.

For `O=[N+]([O-])c1ccc(C=Cc2ccccc2)cc1.[C-]#[O+].[C-]#[O+].[C-]#[O+].[Cr]`, the GI50 was 3.85 µM and the TGI was more than 100 µM.

Regarding `C/C(=C\c1ccc2ccccc2c1)[N+](=O)[O-]`, the GI50 is 1.58 µM and the TGI was 3 µM.

`CCOC(=O)C1=C(C)N(c2ccc(Cl)cc2)[C@]2(C#N)C(O)=C(Cl)C(Cl)=C(O)[C@]12C#N`: the GI50 was 56.5 µM and the TGI is more than 100 µM.

For a further assay, the system named is BT-549 breast. Put plainly: growth of human tumour cells (NCI), 48 h.
With `COc1cc(N2C(=O)[C@H](O)C2c2ccc(SC)cc2)cc(OC)c1OC` (some centres undefined), the GI50 was less than 0.01 µM and the TGI came to 0.0835 µM.

For `O=C1OCC2=C1C(c1ccc(Cl)c(Cl)c1)c1cc3c(cc1N2CCO)OCCO3` (centres undefined), the GI50 is 0.583 µM and the TGI was determined as 15.5 µM.

Regarding `O=C1c2ccccc2-c2cc([N+](=O)[O-])c([N+](=O)[O-])cc21`, the TGI was determined as 3.79 µM.

On to `O=C(/C=C/c1cc2ccccc2[nH]c1=O)/C=C/c1cc2ccccc2[nH]c1=O`, for which the GI50 is 6.86 µM and the TGI came to 12.4 µM.

In the case of `Nc1nc(OCc2ccccc2)c2[nH]cnc2n1`, the GI50 is 24.3 µM and 22.1 µM; the TGI was found to be 115 µM.

For the molecule `CC(=O)OC12C=C(C)C(C(C)C1)C1C(=O)N(CCN3CCOCC3)C(=O)C12` (centres undefined), the GI50 is more than 100 µM and the TGI is more than 100 µM.

In the case of `OCC12C3C4C5C3C1C5C42` (centres undefined), the TGI is more than 100 µM.

`CCCCCCCCCCCCCCCCCC[n+]1ccc2c(C)c3c(c(C)c2c1)c1cc(O)ccc1n3CC`: the GI50 was 2.72 µM and the TGI amounted to 10.5 µM.

In the case of `C1CCC([PH+](C2CCCCC2)C2CCCCC2[PH+](C2CCCCC2)C2CCCCC2)CC1.[Au].[CH-]1CCCCC1CC1CCCC[N-]1` (centres undefined), the GI50 is 0.33 µM and the TGI was found to be 1.51 µM.

Take `O=[N+]([O-])c1ccc(C=Cc2ccccc2)cc1.[C-]#[O+].[C-]#[O+].[C-]#[O+].[Cr]`: the GI50 was 24.1 µM and the TGI is more than 100 µM.

`C/C(=C\c1ccc2ccccc2c1)[N+](=O)[O-]`: the GI50 is 2.24 µM and the TGI turned out to be 4.57 µM.

`NC(CSC1c2ccccc2-c2ccccc21)C(=O)O` (centres undefined): the TGI is more than 100 µM.

As for `CCOC(=O)C1=C(C)N(c2ccc(Cl)cc2)[C@]2(C#N)C(O)=C(Cl)C(Cl)=C(O)[C@]12C#N`, the GI50 is 1.57 µM and the TGI was 33.4 µM.

The test system of a further assay is NCI-H23 lung. Briefly: growth of human tumour cells (NCI), 48 h.
Regarding `COc1cc(N2C(=O)[C@H](O)C2c2ccc(SC)cc2)cc(OC)c1OC` (some centres undefined), the GI50 was 0.0191 µM and the TGI was more than 100 µM.

As for `O=C1OCC2=C1C(c1ccc(Cl)c(Cl)c1)c1cc3c(cc1N2CCO)OCCO3` (centres undefined), the GI50 was 0.279 µM and the TGI was 21.7 µM.

Molecule `O=C1c2ccccc2-c2cc([N+](=O)[O-])c([N+](=O)[O-])cc21` returned a TGI of 3.25 µM.

Consider `O=C(/C=C/c1cc2ccccc2[nH]c1=O)/C=C/c1cc2ccccc2[nH]c1=O`, for which the GI50 was 9.25 µM and the TGI came out at 48.9 µM.

In the case of `Nc1nc(OCc2ccccc2)c2[nH]cnc2n1`, the GI50 is 31.6 µM and 46.9 µM; the TGI is 326 µM and 229 µM.

As to `CC(=O)OC12C=C(C)C(C(C)C1)C1C(=O)N(CCN3CCOCC3)C(=O)C12` (centres undefined), the GI50 is more than 100 µM and the TGI was more than 100 µM.

Take `OCC12C3C4C5C3C1C5C42` (centres undefined): the TGI was more than 100 µM.

Turning to `CCCCCCCCCCCCCCCCCC[n+]1ccc2c(C)c3c(c(C)c2c1)c1cc(O)ccc1n3CC`, the GI50 was 0.912 µM and the TGI was found to be 6.57 µM.

As to `O=[N+]([O-])c1ccc(C=Cc2ccccc2)cc1.[C-]#[O+].[C-]#[O+].[C-]#[O+].[Cr]`, the GI50 is 20.9 µM and the TGI is more than 100 µM.

Molecule `NC(CSC1c2ccccc2-c2ccccc21)C(=O)O` (centres undefined) yielded a TGI of more than 100 µM.
